Reference: patent US12502434B2, “Compound comprising EZH2 inhibitor and E3 ligase binder and pharmaceutical composition for preventing or treating EZH2-associated disease comprising same as active ingredient” (DAEGU-GYEONGBUK MEDICAL INNOVATION FOUNDATION, priority 2019, dated 2025)
Where two headings read alike, the source gives them in different places.

Assays:
[1] = molecular target: T1, EZH2 protein in LS174T cells (Homo sapiens, UniProt Q15910); experiment: Proteolytic effect in colorectal cancer cells (Western blotting); assay type: cell-based
T1 construct: endogenous in cells; host or cells: LS174T
Protocol: After 72 hours of the treatment, the cells were collected and lysed using RIPA buffer (50 mM Tris, pH 7.5, 150 mM NaCl, 1% Triton X-100, 0.1% SDS, […], 0.5% deoxycholate, and protease inhibitor cocktail), followed by sonication (30 sec on/30 sec off, 5 cycles) to prepare a cell lysate.

[2] = molecular target: T2, HiBiT-EZH2 in EZH2-HiBiT HEK293T cells (Homo sapiens, UniProt Q15910); experiment: EZH2 proteolytic activity using Nano-BiT assay system; assay type: cell-based; conditions: for EZH2 proteolytic ability compared to comparative compounds 1, 2 and 3 (in words): 1 μM; for Relative EZH2 degradation rate, 1 μM(%) Average: 72 hours, n = 3
T2 construct: endogenous in cells; host or cells: HEK293T (CRISPR/Cas9 HiBiT knock-in at the EZH2 locus)
Protocol: In order to evaluate the EZH2 proteolytic activity of the compound according to the present invention, the following experiment was performed. Specifically, the CRISPR/Cas9 technique was used to construct a stable cell line of HiBiT-EZH2. […] After harvesting the cells, the cell solution was prepared at a concentration of 1 cell/100 ul, and 100 ul of the cell solution was dispensed into each well of a 96-well plate and seeded so that a single cell could proliferate in each well. After proliferating the cells for 2-3 weeks, some of the proliferated cells from one cell were recovered and gDNA was extracted. To confirm that the HiBiT sequence was correctly inserted into the EZH2 target, deep sequencing was performed to select the cells containing the HiBiT sequence, and after further verification through Sanger sequencing, the final EZH2-HiBiT HEK293T cells were obtained. 1×10^3 of the obtained cells were placed in a 96-well white plate, and after 18 hours of stabilization, each well was treated with the example compound at a final concentration of 1 μM. The control group was treated with the same concentration of DMSO which was used as the solvent of the example compound. After 72 hours of the treatment, an assay was performed using Nano-Glo HiBiT Lytic Detection System ([…], Promega). After removing the medium, 100 μL of lysis buffer, 1 μL of LgBiT protein and 1 μL of substrate buffer were added to each well. Then, the plate was reacted in a shaking incubator at 700 rpm for 2 minutes, and then the mixture of each well was pipetted to mix well. Thereafter, the plate was reacted at room temperature for 10 minutes while light was blocked, and luminescence was measured.

[3] = EZH2 protein, LS174T cells, 1 μM, 72 hours
[4] = EZH2 protein, LS174T cells, 1 uM, 72 hours, Western blotting

T1 sequence (Q15910 whole entry): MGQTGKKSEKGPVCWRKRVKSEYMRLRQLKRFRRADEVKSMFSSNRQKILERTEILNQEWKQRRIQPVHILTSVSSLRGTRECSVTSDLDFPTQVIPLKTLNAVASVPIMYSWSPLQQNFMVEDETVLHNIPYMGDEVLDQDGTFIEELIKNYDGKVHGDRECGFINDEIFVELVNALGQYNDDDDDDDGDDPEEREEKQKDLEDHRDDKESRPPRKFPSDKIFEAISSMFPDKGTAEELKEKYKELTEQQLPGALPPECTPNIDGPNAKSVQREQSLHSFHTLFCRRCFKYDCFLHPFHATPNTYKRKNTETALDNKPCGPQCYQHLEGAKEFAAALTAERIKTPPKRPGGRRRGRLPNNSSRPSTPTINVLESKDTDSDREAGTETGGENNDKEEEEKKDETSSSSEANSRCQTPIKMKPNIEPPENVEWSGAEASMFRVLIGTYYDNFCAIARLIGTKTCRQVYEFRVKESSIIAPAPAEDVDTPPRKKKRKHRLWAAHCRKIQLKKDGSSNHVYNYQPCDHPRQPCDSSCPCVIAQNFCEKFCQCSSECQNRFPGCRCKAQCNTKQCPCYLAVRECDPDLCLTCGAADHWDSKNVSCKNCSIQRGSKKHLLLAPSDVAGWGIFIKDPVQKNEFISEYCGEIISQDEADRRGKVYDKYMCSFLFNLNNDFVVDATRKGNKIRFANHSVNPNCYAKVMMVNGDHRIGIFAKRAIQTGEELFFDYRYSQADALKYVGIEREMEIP
T1 sequence (O75530 whole entry partner): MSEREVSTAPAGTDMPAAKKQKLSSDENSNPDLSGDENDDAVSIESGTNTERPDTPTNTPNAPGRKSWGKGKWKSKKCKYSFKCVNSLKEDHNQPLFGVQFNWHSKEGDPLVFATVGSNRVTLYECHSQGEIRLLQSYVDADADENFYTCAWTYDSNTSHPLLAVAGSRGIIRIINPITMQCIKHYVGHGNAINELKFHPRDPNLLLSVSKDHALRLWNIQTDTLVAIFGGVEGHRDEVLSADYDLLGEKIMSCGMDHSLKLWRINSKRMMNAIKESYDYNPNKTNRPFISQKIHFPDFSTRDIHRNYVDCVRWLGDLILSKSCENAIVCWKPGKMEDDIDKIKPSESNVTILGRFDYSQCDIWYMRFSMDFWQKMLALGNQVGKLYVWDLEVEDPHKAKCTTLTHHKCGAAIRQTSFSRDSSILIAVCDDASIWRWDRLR
T1 sequence (Q15022 whole entry partner): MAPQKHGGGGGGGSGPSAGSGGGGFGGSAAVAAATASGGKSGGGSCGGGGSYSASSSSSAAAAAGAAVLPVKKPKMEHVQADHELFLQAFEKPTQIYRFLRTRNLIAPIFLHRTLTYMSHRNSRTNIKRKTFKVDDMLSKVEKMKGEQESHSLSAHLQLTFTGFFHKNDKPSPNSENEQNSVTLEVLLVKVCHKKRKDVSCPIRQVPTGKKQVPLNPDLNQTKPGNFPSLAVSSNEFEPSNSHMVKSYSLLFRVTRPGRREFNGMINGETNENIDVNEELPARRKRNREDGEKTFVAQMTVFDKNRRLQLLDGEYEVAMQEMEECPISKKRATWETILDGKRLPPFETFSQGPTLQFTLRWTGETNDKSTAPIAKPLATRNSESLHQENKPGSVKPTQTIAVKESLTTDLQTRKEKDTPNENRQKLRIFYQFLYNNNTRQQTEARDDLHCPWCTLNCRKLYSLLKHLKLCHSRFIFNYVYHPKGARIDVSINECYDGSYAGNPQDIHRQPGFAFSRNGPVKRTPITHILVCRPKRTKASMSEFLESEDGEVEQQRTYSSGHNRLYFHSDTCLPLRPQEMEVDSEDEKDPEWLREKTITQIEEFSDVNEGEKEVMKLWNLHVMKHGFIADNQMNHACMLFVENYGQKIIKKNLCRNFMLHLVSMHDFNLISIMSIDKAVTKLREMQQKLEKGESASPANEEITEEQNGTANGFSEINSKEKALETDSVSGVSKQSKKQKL
T2 sequence (Q15910 whole entry): as the sequence (Q15910 whole entry) above
T2 sequence (O75530 whole entry partner): as the sequence (O75530 whole entry partner) above
T2 sequence (Q15022 whole entry partner): as the sequence (Q15022 whole entry partner) above

Compound | Grade (percent value of the protein degradation when treated with 1 μM) [1, 3] | %, degradation at 1 uM [1, 4] [%] | EZH2 proteolytic effect by Western blotting (figure, in words) ([1]; FIGS. 1 to 5) | effect of degrading EZH2 protein when treated to colorectal cancer cells (in words) ([1]; LS174T cells) | EZH2 proteolytic ability compared to comparative compounds 1, 2 and 3 (in words) [2] | Relative EZH2 degradation rate, 1 μM(%) Average [2] [%] | %, degradation at 1 uM [1] [%] | EZH2 proteolytic effect by Western blotting (figure, in words) [1] | Grade (percent value of the protein degradation when treated with 1 μM) [1]
CCN(c1cc(-c2ccc(CN3CCN(CC(=O)N4CCC5(CCN(CCNc6cccc7c6C(=O)N(C6CCC(=O)NC6=O)C7=O)CC5)CC4)CC3)cc2)cc(C(=O)NCc2c(C)cc(C)[nH]c2=O)c1C)C1CCOCC1 (stereo not drawn) [Example 30, N-((4,6-dimethyl-2-oxo-1,2-dihydropyridine-3-yl)methyl)-4′-((4-(2-(9-(2-((2-(2,6-dioxopiperidine-3-yl)-1,3-dioxoisoindoline-4-yl)amino)ethyl)-3,9-diazaspiro[5.5]undecane-3-yl)-2-oxoethyl)piperazine-1-yl)methyl)-5-(ethyl(tetrahydro-2H-pyran-4-yl)amino)-4-methyl-[1,1′-biphenyl]-3-carboxamide] | A (>75%) | 95.65 | confirming the EZH2 proteolytic effect | excellent effects | significantly better EZH2 proteolytic ability | 50.7 | – | – | –
CCN(c1cc(-c2ccc(OCC(=O)NCCCCCCNc3cccc4c3C(=O)N(C3CCC(=O)NC3=O)C4=O)cc2)cc(C(=O)NCc2c(C)cc(C)[nH]c2=O)c1C)C1CCOCC1 (stereo not drawn) [compound 1, reference compound] | – | – | – | – | – | 27.8 | – | – | –
CCN(c1cc(-c2ccc(CN3CCN(CCNC(=O)CCOCCNc4cccc5c4C(=O)N(C4CCC(=O)NC4=O)C5=O)CC3)cc2)cc(C(=O)NCc2c(C)cc(C)[nH]c2=O)c1C)C1CCOCC1 (stereo not drawn) [compound 3, reference compound] | – | – | – | – | – | 19.2 | – | – | –
CCN(c1cc(-c2ccc(CN3CCN(CC(=O)NCCCCCCOCC(=O)N[C@H](C(=O)N4C[C@H](O)C[C@H]4C(=O)NCc4ccc(-c5scnc5C)cc4)C(C)(C)C)CC3)cc2)cc(C(=O)NCc2c(C)cc(C)[nH]c2=O)c1C)C1CCOCC1 [Example 46, (2S,4R)-1-((S)-2-(2-((6-(2-(4-((3′-(((4,6-dimethyl-2-oxo-1,2-dihydropyridine-3-yl)methyl)carbamoyl)-5′-(ethyl(tetrahydro-2H-pyran-4-yl)amino)-4′-methyl-[1,1′-biphenyl]-4-yl)methyl)piperazine-1-yl)acetamido)hexyl)oxy)acetamido)-3,3-dimethylbutanoyl)-4-hydroxy-N-(4-(4-methylthiazole-5-yl)benzyl)pyrrolidine-2-carboxamide] | – | – | – | – | significantly better EZH2 proteolytic ability | 65.8 | 83.76 | confirming the EZH2 proteolytic effect | A (key: A: >75%; B: 50-75%; C: 25-50%; D: <25%)
CCN(c1cc(-c2ccc(CN3CCN(CC(=O)NCCCCCOCCCOCC(=O)N[C@H](C(=O)N4C[C@H](O)C[C@H]4C(=O)NCc4ccc(-c5scnc5C)cc4)C(C)(C)C)CC3)cc2)cc(C(=O)NCc2c(C)cc(C)[nH]c2=O)c1C)C1CCOCC1 [Example 37, (2S,4R)-1-((S)-2-(tert-butyl)-18-(4-((3′-(((4,6-dimethyl-2-oxo-1,2-dihydropyridine-3-yl)methyl)carbamoyl)-5′-(ethyl(tetrahydro-2H-pyran-4-yl)amino)-4′-methyl-[1,1′-biphenyl]-4-yl)methyl)piperazine-1-yl)-4,17-dioxo-6,10-dioxa-3,16-diazaoctadecanoyl)-4-hydroxy-N-(4-(4-methylthiazole-5-yl)benzyl)pyrrolidine-2-carboxamide] | A (>75%) | 92.73 | – | excellent effects | significantly better EZH2 proteolytic ability | 62.9 | – | – | –
CCN(c1cc(-c2ccc(N3CCN(CC(=O)NCCCCCCNc4cccc5c4C(=O)N(C4CCC(=O)NC4=O)C5=O)CC3)cc2)cc(C(=O)NCc2c(C)cc(C)[nH]c2=O)c1C)C1CCOCC1 (stereo not drawn) [compound 2, reference compound] | – | – | – | – | – | 16.2 | – | – | –
CCN(c1cc(-c2ccc(CN3CCN(CC(=O)NCCCCCCCCCOCC(=O)N[C@H](C(=O)N4C[C@H](O)C[C@H]4C(=O)NCc4ccc(-c5scnc5C)cc4)C(C)(C)C)CC3)cc2)cc(C(=O)NCc2c(C)cc(C)[nH]c2=O)c1C)C1CCOCC1 [Example 49, (2S,4R)-1-((S)-2-(2-((9-(2-(4-((3′-(((4,6-dimethyl-2-oxo-1,2-dihydropyridine-3-yl)methyl)carbamoyl)-5′-(ethyl(tetrahydro-2H-pyran-4-yl)amino)-4′-methyl-[1,1′-biphenyl]-4-yl)methyl)piperazine-1-yl)acetamido)nonyl)oxy)acetamido)-3,3-dimethylbutanoyl)-4-hydroxy-N-(4-(4-methylthiazole-5-yl)benzyl)pyrrolidine-2-carboxamide] | A (>75%) | 96.49 | confirming the EZH2 proteolytic effect | excellent effects | significantly better EZH2 proteolytic ability | 77.8 | – | – | –
CCN(c1cc(-c2ccc(CN3CCN(C(=O)CNCCCCCCNc4cccc5c4C(=O)N(C4CCC(=O)NC4=O)C5=O)CC3)cc2)cc(C(=O)NCc2c(C)cc(C)[nH]c2=O)c1C)C1CCOCC1 (stereo not drawn) [Example 14, N-((4,6-dimethyl-2-oxo-1,2-dihydropyridine-3-yl)methyl)-4′-((4-((6-((2-(2,6-dioxopiperidine-3-yl)-1,3-dioxoisoindoline-4-yl)amino)hexyl)glycyl)piperazine-1-yl)methyl)-5-(ethyl(tetrahydro-2H-pyran-4-yl)amino)-4-methyl-[1,1′-biphenyl]-3-carboxamide] | D (<25%) | 6.21 | – | – | – | – | – | – | –
